Test results reported in patent US12208080B2, “Compositions and methods for modulation of extracellular vesicle release and treatment of neurological disorders” (GEORGE MASON RESEARCH FOUNDATION, INC., priority 2018, dated 2025).
Where a name gives a salt, the structure may show the parent alone.

Legend:
Type in all cases: cell-based
[1] = test system: HTLV-1 infected T-cells (HUT 102); test: EV release from HTLV-1 infected T-cells, Western blot for Tax, CD63, CD9; settings: 10 μM AZT, 10K units IFN-α or both, 5 days, FIG. 6
Protocol: HTLV-1 infected T-cells (HUT 102) were treated with 10 μM AZT, 10K units of IFN-α, or a combination of the two for 5 days. Resulting supernatants were enriched for extracellular vesicles using NT80/82 and analyzed by Western blot for the presence of Tax, CD63, CD9, and Actin.
The incorporation of the human T-lymphotropic virus type 1 (HTLV-1) protein, Tax, into extracellular vesicles has been implicated in enhanced survival of recipient cells thereby contributing to a cancer phenotype. Applicant examined the effect of Azidothymidine (AZT) and interferon-α (IFN-α), both therapeutics commonly used in the treatment of HTLV-1, on the release of EVs from HTLV-1 infected cells. Here, HTLV-1 infected T-cells (HUT 102) were treated with 10 μM AZT, 10K units of IFN-α, or a combination of the two for 5 days. Resulting supernatants were enriched for extracellular vesicles using NT80/82 and analyzed by Western blot for the presence of Tax, CD63, CD9, and Actin.

[2] = test system: autophagy proteins (p62, LC3, ATG12-ATG5, ATG12, Beclin-1) in U1 cells; test: Autophagy protein profile, CBD versus autophagy drugs, in U1 cells and their EVs (Western blot); settings: 5 days; for EV-associated LC3 II / EV-associated LC3 I / EV-associated p62: Bafilomycin A1 50 nM, SB 203580 20 μM, Wortmannin 2 nM; for EV-associated LC3 II: vs untreated infected control; for EV-associated LC3 I / EV-associated p62: CBD 10 μM, lower panel
Protocol: FIGS. 18A-18B are gels showing CBD promotes autophagy turnover, resulting in a decrease in extracellular autophagosomal secretion. A) U1 cells (1×10^6) were treated±CBD (10 μM) for the following incubation periods: 0, 6, 24, and 48 hours. Cells were pelleted and lysed, exosomes from supernatants were enriched with NT80/82 beads overnight at 4° C. Samples were run through SDS-PAGE and western blotted for autophagy proteins (p62 and LC3), and Actin. B) U1 cells (1×10^6) were treated±10 μM CBD (every day), Rapamycin (50 nM), INK128 (50 nM), Bafilomycin A1 (50 nM), SB 203580 (20 μM), Wortmannin (2 nM) for a 5-day incubation period. Cells were pelleted and lysed, exosomes from supernatants were enriched using NT80/82 beads overnight at 4° C. Samples were run through SDS-PAGE and western blotted for autophagy proteins (p62, LC3, ATG12-ATG5, ATG12, Beclin-1), and Actin.
FIGS. 21A-21K are graphs showing normalized densitometry analysis of CBD and autophagy drug treatment on HIV-1 infected monocytes. Intracellular (A) p62, (B) LC3 I, (C) LC3 II, (D) ATG12-ATG5 complex, (E) ATG12, and (F) Beclin-1, and extracellular (G) p62, (H) LC3 I, (I) LC3 II, (J) ATG12-ATG5 complex, and (K) Beclin-1 densitometry counts were calculated from the Western blot data in FIG. 5B, normalized to respective intracellular and extracellular Actin levels, and plotted.
To determine the specific points at which CBD inhibits intracellular and extracellular autophagosome formation and secretion, we compared CBD treatment of U1 monocytes with known inhibitors of different points in the autophagy pathway. Cell viability was assessed among a panel of titrated autophagy drugs and the least toxic concentration per drug was utilized (FIG. 20). We treated U1 cells with CBD (10 μM) every day, Rapamycin (50 nM), INK128 (50 nM), Bafilomycin A1 (50 nM), SB 203580 (20 μM), or Wortmannin (2 nM) for 5 days. Our rationale for using these drugs was that they regulate different steps of autophagy including nucleation inhibition by inhibiting MTOR activity (Rapamycin, INK128) or by inhibiting pre-autophagosomal VPS34 complex activity (Wortmannin, SB 203580), and autophagosome-lysosome fusion inhibition (Bafilomycin A1). Therefore, a side-by-side comparison to CBD would potentially allow for a better definition of which step of autophagosome formation is primarily regulated by CBD. U1 cells were treated with the autophagy regulators and harvested along with their corresponding supernatants for further analysis using Western blot against p62, LC3, ATG12-ATG5 complex, free ATG12, Beclin-1, and Actin. Results in FIG. 18B (intracellular proteins, top panel) show autophagy protein profiles associated with the various autophagy regulators. […] The corresponding supernatants were enriched for EVs and also analyzed for the presence of autophagy proteins.

[3] = test system: ESCRT pathway proteins (VPS4); test: Western blot of ESCRT pathway proteins in U1 whole cell extracts; settings: 0.1, 1, 10 μM, 5 days, FIG. 5B
Protocol: U1 cells were pretreated with cART (45 μM) for 3 days followed by an additional dose of cART and tetracycline antibiotics (10 nM) for 5 days. Cells were lysed, and extracts were used for Western blot analysis for ESCRT proteins [ESCRT-1 (TSG101), -11 (EAP20, EAP45), -III (CHMP6), and exit (VPS4)] and Actin levels. […]
U1 cells were treated with a titration of ethylene glycol-bis(p-aminoethyl ether)-N,N,N′,N′-tetraacetic acid (EGTA) (0.1, 1, and 10 μM) for 5 days and whole cell extracts were analyzed by Western blot for ESCRT pathway proteins and Actin.
Tetracycline class antibiotics including tetracycline, oxytetracycline, minocycline, doxycycline, methacycline, and demeclocycline have the potential to mitigate EV-associated pathogenesis by also modulating EV release. […] The tetracycline antibiotic family are chelators of divalent cations, including Ca2+ and Mg2+. Therefore, Applicant also tried to determine whether the chelating property of Oxytetracycline could possibly be responsible for the manipulation of the ESCRT pathway proteins levels.

[4] = test system: RNA polymerase II (Pol II) loading; test: Chromatin immunoprecipitation of Pol II, qPCR for TAR DNA; settings: U1; CBD 10 μM, Flavo 50 nM; 2-hour and 6-hour; FIG. 15C
Protocol: FIGS. 15A-15C are graphs and gels showing cannabidiols lower intracellular viral transcription and downstream viral products. U1 cells (1×10^6) were treated with a titration of CBD (1, 5, 10 μM) and THC (1, 5, 10 μg/mL) every day for 5 days. A) Intracellular RNA was isolated and analyzed through RT-qPCR for HIV-1 viral transcripts TAR and env. Each bar represents an average of three independent replicates. B) U1 cells (2×10^6) were treated with a titration of CBD (1, 5, 10 μM) every day for 5 days. Cells pellets were lysed, run through SDS-PAGE, and western blotted for (p-)/NF-κB, autophagosomal markers (p63, LC3), EV biogenesis marker VPS4, viral markers (gp120, Nef, p24), and Actin. C) U1 cells (5×10^6) were treated±CBD (10 μM) and Flavopiridol hydrochloride (50 nM; indicated as Flavo) and incubated for the following time points: 0 minutes, 2 hours and 6 hours. Cells were cross-linked with 1% formaldehyde solution and ChIP-ed for IgG and Pol II. ChIP DNA samples were analyzed via qPCR for TAR and env. Student's t-test was used for statistical analysis, where *p-value≤0.05; **p-value≤0.01, ***p-value≤0.001. […]
U1 monocytes were treated with CBD (10 μM) and Flavo (50 nM) for short periods (0, 2 and 6 hours) due to the fact that HIV-1 transcription activity is a rapid event that can be scored using chromatin immunoprecipitation (ChIP) assay for factor occupancy. […]

[5] = CBD 10 μM every day, Rapamycin 50 nM, INK128 50 nM, FIG. 18B top panel

## Cc1cn([C@H]2C[C@H](N=[N+]=[N-])[C@@H](CO)O2)c(=O)[nH]c1=O [AZT, 3′-azido-2′3′-di deoxythymidine]
[1]
  amount of vesicles released (CD63 and CD9): increase in the amount of vesicles release

## CO/C1=C\C(C)=C\[C@@H](C)[C@@H](O)[C@@H](C)C/C(C)=C/C=C/[C@H](OC)[C@@H]([C@@H](C)[C@@H](O)[C@H](C)[C@@]2(O)C[C@@H](O)[C@H](C)[C@@H](C(C)C)O2)OC1=O [Bafilomycin A1]
[2]
  EV-associated LC3 II: elevated levels
[2]; Rapamycin 50 nM, INK128 50 nM
  EV-associated LC3 I: elevated levels
  EV-associated p62: sustained levels

## O=C(O)CN(CCOCCOCCN(CC(=O)O)CC(=O)O)CC(=O)O [EGTA, ethylene glycol-bis(p-aminoethyl ether)-N,N,N′,N′-tetraacetic acid]
[3]
  levels of measured ESCRT proteins: no change

## CN1CC[C@H](c2c(O)cc(O)c3c(=O)cc(-c4ccccc4Cl)oc23)[C@H](O)C1 [Flavo, Flavopiridol hydrochloride hydrate]
[4]
  Pol II-associated TAR DNA versus untreated: statistically significant decreases

## CC(C)n1nc(-c2ccc3oc(N)nc3c2)c2c(N)ncnc21 [INK128]
[2]; [5]
  intracellular ATG12-ATG5: low levels
  intracellular Beclin-1: high levels
  intracellular LC3 I: low levels
[2]; Rapamycin 50 nM, INK128 50 nM
  EV-associated LC3 I: reduction
  EV-associated p62: reduction

## C[S+]([O-])c1ccc(-c2nc(-c3ccncc3)c(-c3ccc(F)cc3)[nH]2)cc1 (stereo not drawn) [SB 203580]
[2]
  EV-associated LC3 II: elevated levels
[2]; Rapamycin 50 nM, INK128 50 nM
  EV-associated LC3 I: elevated levels
  EV-associated p62: sustained levels

## IFN-α
[1]
  amount of vesicles released (CD63 and CD9): decreases the amount of vesicles released
